Assay results published in patent US7749962B2, “Alpha 5 beta 1 and its ability to regulate the cell survival pathway” (University of Medicine & Dentistry of NJ, priority 2002, dated 2010).
Read-outs that look alike come from different tables or passages of the source.

Legend:
MDA-MB-231 cells = test: Clonogenic potential with growth factors in tissue culture; format: cell-based; conditions: growth factor 10 ng/ml
Protocol: (§1) One thousand MCF-7 or MDA MB-231 cells per well were incubated in 24 well tissue culture plates with and without the presence of 10 ng/ml basic fibroblast growth factor (FGF-2) or epidermal growth factor (EFG). Plates were stained with crystal violet after a 5 day incubation and clones consisting of A. 29±2 cells and B. 8±2 cells were counted. C. Ten thousand T-47D cells per well were incubated in 24 well tissue culture plates coated with fibronectin with and without the presence of 10 ng/ml basic fibroblast growth factor (FGF-2) or epidermal growth factor (EFG). Plates were stained with crystal violet after 3 days and clones consisting of 8 or more cells were counted.
(§2) MCF-7 and T-47D (1,000 cells/well) and MDA MB-231 (200 cells per well) were incubated in 24 well plates±10 ng/ml EFG or FGF-2 for 6 days, stained with crystal violet and clones with ≧29 actively growing cells (▪) or with ≦10 well spread, growth arrested cells ( ? ) were counted.
(§3) MCF-7, SK-Br-3, MDA-MB-231, PC-3 and LNCaP cells were purchased from the American Type Culture Collection (ATCC), (Rockville, Md.). Cells were cultured in Dulbecco's Modified Eagle's Medium (DMEM) (Gibco BRL, Gaithersburg, Md.) with phenol red 15 mg/l, 2 mM glutamine, 10% heat inactivated fetal calf serum (FCS) and penicillin 50 units/ml and streptomycin 50 micrograms μg/ml (Gemini Bioproducts, Calabasas, Calif.). One to ten thousand cells were incubated on 24 well tissue culture plates that were either commercially coated for tissue culture (uncoated) or coated with 20 g fibronectin, laminin I, collagen I or collagen IV, depending on the cell type or experimental conditions described in the figure legends. Colonies were manually counted at 100× magnification after variable days in culture as described in the figure legends after removing the media and staining cells with crystal violet. Proliferation kinetics were performed as before^1 using 2% trypan blue counts on trypsinized cells on the days indicated in the figure in triplicate plates.

MCF-7 and T-47D cells = test: as above; format: cell-based; conditions: growth factor 10 ng/ml
Protocol: as §1, §2, §3

Akt [1] = test: Western blot of Akt phosphorylation by FGF-2 on fibronectin; format: cell-based
Protocol: Western blots of lysates from MCF-7, T-47D and MDA-MB-231 cells incubated on fibronectin-coated plates with FGF-2 for up to 5 days were stained with antibody to phospho-Akt or total Akt. […] No effect was noted on total Akt levels. Stained membrane was used as a loading control.
(§4) Cells were harvested and lysates were prepared as described^2 and analyzed as before^3.

integrin α5 = test: Western blot of integrin α5 expression ± FGF-2; format: cell-based
Protocol: A. Gene chip analysis of integrin α5 and β1 mRNA expression in MCF-7 cells incubated±FGF-2 for 3 or 5 days on fibronectin-coated plates. Densitometer quantitations normalized against GAPDH and actin mRNA standards are shown. B. Western blots of integrin α5 from cells incubated±FGF-2 for 3 days on tissue culture- or fibronectin-coated dishes. C. Indirect immunofluorescence of integrin α5 in T-47D cells on cover slips±FGF-2 10 ng/ml for 24 hours. D. Western blots of integrins α2, α3, α4, α6, β1, β3 and β4 in MCF-7 and T-47D cells incubated±FGF-2 for 3 days. Nonspecific bands were as loading controls.
as §4

MCF-7 cells = test: Clonogenicity ± fibronectin with FGF-2 and fibronectin-blocking peptide; format: cell-based; conditions: FGF-2 10 ng/ml; peptide 1 ng/ml added after 3 days, counted 6 days later
Protocol: 10^3 MCF-7 (and T-47D, not shown) cells were incubated±fibronectin with 10 ng/ml FGF-2. Fibronectin-blocking peptide GRGDSP 1 ng/ml (American Peptide Co., Inc, Sunnyvale, Calif.) was added after 3 days and 4, 8 and 12 cell colonies were counted 6 days later.
as §3

RhoA = RhoA (Homo sapiens, UniProt P61586); conditions: target RhoA, cited from earlier work
RhoA, sequence (P61586 whole entry, species assumed): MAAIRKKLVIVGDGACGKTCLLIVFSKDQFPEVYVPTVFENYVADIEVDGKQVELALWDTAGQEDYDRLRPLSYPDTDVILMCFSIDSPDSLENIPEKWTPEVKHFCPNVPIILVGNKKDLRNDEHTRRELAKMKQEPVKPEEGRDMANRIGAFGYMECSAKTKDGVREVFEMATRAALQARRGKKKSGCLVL

Akt [2] = test: Western blot of Akt phosphorylation after ATRA; format: cell-based
Protocol: MCF-7 cells were treated with EGF 100 ng/ml for 10 min followed by ATRA 10^−7 M or control media 2 h later for an additional 24 h. Western blots of lysates were stained with anti-phospho-Akt ab. Cells were harvested and lysates were prepared as described^2 and analyzed as before^3.

Molecule: EFG: epidermal growth factor; recombinant human, R&D Systems
- growth (clonogenic potential) (MDA-MB-231 cells): no effect
- clonogenic potential (MCF-7 and T-47D cells): no effect

Molecule: FGF-2: fibroblast growth factor 2, basic fibroblast growth factor; recombinant human, R&D Systems
- phosphorylation of Akt (Akt [1]; MCF-7 and T-47D cells on fibronectin, up to 5 days): induced phosphorylation of Akt
- phosphorylation of Akt (Akt [1]; MDA-MB-231 cells on fibronectin, constitutive phosphorylation): no effect on constitutive Akt phosphorylation
- integrin α5 expression (integrin α5; MCF-7 and T-47D cells on plastic or fibronectin-coated dishes): induction of integrin α5 expression
- integrin α5 expression (integrin α5; MDA-MB-231 cells, baseline high levels): No effect
- growth (clonogenic potential) (MDA-MB-231 cells): no effect
- clonogenic potential (MCF-7 and T-47D cells): markedly diminished clonogenic potential

Molecule: GRGDSP
- colonies on fibronectin (MCF-7 cells): only inhibited colonies on fibronectin
- colonies on plastic (MCF-7 cells): not on plastic

Molecule: C3 transferase
- ED50 (RhoA): 2 to 5 µg/mL
- ED50 (RhoA; listed as C3 transferase inhibitor): 2 to 5 µg/mL

Molecule: CC1=C(/C=C/C(C)=C/C=C/C(C)=C/C(=O)O)C(C)(C)CCC1 [ATRA, all-trans retinoic acid]
- FGF-2 induced increases in total and phosphorylated Akt (Akt [2]): reversed FGF-2 induced increases in total and Phosphorylated Akt
- EGF-mediated phosphorylation of Akt (Akt [2]; MCF-7 cells, EGF 100 ng/ml, ATRA 10^−7 M for 24 h): reversed the EGF-mediated phosphorylation of Akt
